According to patent publication US20200345021A1, “METHOD AND SYSTEM FOR ENHANCING THE EFFICACY USING IONIZED/A[…] PEROXIDE IN REDUCING MICROBIAL POPULATIONS, METHOD OF USE THEREOF” (priority 2019, published 2020):
Like-named read-outs stand apart in the source and are kept apart here. Marks after values point to notes of the source that are not given here.

System: Salmonella Typhimurium
Assay type: cell-based
Details: for Reductions of Salmonella, range over the fresh produce items: all tested produce items and surfaces, optimized conditions
Source text: To minimize the risk of possible bacteria becoming airborne during treatments, attenuated and non-pathogenic bacteria were used in the study. Two strains of non-pathogenic S. Typhimurium (ATCC 53647 and 53648) and three strains of L. innocua (ATCC 33090, ATCC 51742 and ATCC BAA680) were obtained from American Type Culture Collection (ATCC) (Manassas, Va., USA). Further studies used E. coli O157:H7 (ATCC 700728), S. Typhimurium (ATCC 53647 and 53648), and L. innocua (ATCC 33090) obtained from American Type Culture Collection (ATCC) (Manassas, Va., USA) and maintained as a part of the culture collection at the USDA Eastern Regional Research Center (Wyndmoor, Pa. USA). The bacteria were made to be resistant to nalidixic acid by successive growth in Trypic Soy Broth (TSB) (Difco, Sparks, Md., USA) with increasing nalidixic acid concentrations. All strains were stored at −80° C. in 1 mL of TSB containing 10% glycerol. Working cultures of S. Typhimurium and L. innocua were maintained in 9 mL TSB (supplemented with 100 μg/mL nalidixic acid for S. Typhimurium) at 4° C. after incubating at 37° C. for […], respectively, and sub-cultured each time.
Each strain of S. Typhimurium and L. innocua was cultured in 9 mL TSB (supplemented with 100 μg/mL nalidixic acid for S. Typhimurium) and incubated at 37° C. for 40 h and 48 h, respectively, harvested by centrifugation at 4000×g for 10 min at 4° C., and resuspended in 9 mL sterile Buffered Peptone Water (BPW; Difco). The pellets were resuspended in BPW to form cell suspensions with a final concentration of 108˜10^9 CFU/mL. Subsequently, suspended pellets of two strains of Salmonella and three strains of L. innocua were combined to obtain two separate culture cocktails.
Grape tomatoes, granny smith apples, romaine lettuce and cantaloupes were purchased from local markets (Philadelphia, Pa., USA) and kept at 10° C. prior to use. Fruits and vegetables were removed from 10° C. refrigeration and equilibrated to ambient temperature before being inoculated. Romaine lettuce was divided into upper green leaf and midrib tissues. Six tomatoes, six pieces (2×2 cm) of apple skins, five pieces (3×3 cm) of Romaine lettuce upper leaves, five pieces (3 cm length) of Romaine lettuce midrib area and six pieces (2×2 cm) of cantaloupe rinds with 2×3 mm thickness of flesh were used for each treatment per replicate. Bach piece w as spot inoculated with 10 μL of Salmonella and L. innocua by depositing droplets with a micropipette. The inoculated samples were dried in a bio-hood for 1 h (for tomato surfaces, romaine lettuce, apple skins and cantaloupe rinds) or 2 h (for tomato stem scars) at ambient temperature.
Produce items were placed onto a sterile test tube rack with the inoculated area facing up and the rack with produce pieces were placed inside of a treatment chamber (12×12×24 inch).
Therefore, each kind of produce was treated with and without cold plasma ionized under the same optimized conditions.
After each treatment, the tomato stem scars and surfaces with the inoculated bacteria were removed using a pair of sterile scissors. Each type of produce item from the same treatment was combined (total weight: 1.51±0.29 g for tomato stem scars; 2.07±0.15 g for tomato surfaces; 6.37±0.92 g for apple skins; 1.62±0.34 g for Romaine lettuce upper leaves: 13.30±2.97 g for Romaine lettuce midrib tissues: 9.58±1.26 g for cantaloupe rinds) and transferred into an 80 mL filtered stomacher bag. After addition of 30 mL BBL buffered peptone water into the bag, the sample in the bag was homogenized using a mini blender (Mini Mix CC, Interscience laboratories Inc., Woburn, Mass., USA) for 2 min at a setting of 4. […] Tryptic Soy Agar with 200 μg/mL pyruvate acid and 100 μg/mL nalidixic acid (TSA-PN) and PALCAM Agars (Difco) were used for the enumeration of S. Typhimurium and L. innocua, respectively.

[1] = Cantaloupe rind, 30 s spray time + 30 min dwell, listed as H2O2 + cold plasma
[2] = Romaine lettuce-midrib, 30 s spray time + 30 min dwell, listed as H2O2 + cold plasma
[3] = Romaine lettuce-upper leaf, 30 s spray time + 30 min dwell, listed as H2O2 + cold plasma
[4] = Tomato-stem scar, three cycles of 20 s spray time plus 20 min dwell time, listed as H2O2 + cold plasma

OO [H2O2, hydrogen peroxide]
Populations of Salmonella Typhimurium [1]: 3.76 ± 0.53^c log CFU/piece | Reductions of Salmonella Typhimurium [1]: 2.61 ± 0.53^x log CFU/piece | Reductions of Salmonella Typhimurium (Granny Smith apples, 8 s spray time + 30 min dwell, listed as H2O2 + cold plasma): 5.50 ± 0.19^x log CFU/piece | Reductions of Salmonella Typhimurium (Granny Smith apples, 8 s spray time + 30 min dwell, listed as iHP): > 5 log CFU/piece | Populations of Salmonella Typhimurium [2]: 2.54 ± 0.32^c log CFU/piece | Reductions of Salmonella Typhimurium [2]: 3.40 ± 0.32^x log CFU/piece | Populations of Salmonella Typhimurium [3]: 3.54 ± 0.11^c log CFU/piece | Reductions of Salmonella Typhimurium [3]: 2.88 ± 0.11^x log CFU/piece | Populations of Salmonella Typhimurium [4]: 3.60 ± 0.70^c log CFU/piece | Reductions of Salmonella Typhimurium [4]: 2.35 ± 0.30^x log CFU/piece | Reductions of Salmonella Typhimurium (Tomato-surface, 8 s spray time + 30 min dwell, listed as H2O2 + cold plasma): 5.28 ± 0.49^x log CFU/piece | Reductions of Salmonella Typhimurium (Tomato-surface, 8 s spray time + 30 min dwell, listed as iHP): > 5 log CFU/piece | Reductions of Salmonella, range over the fresh produce items (listed as hydrogen peroxide (H2O2) with cold plasma): 2.35-5.50 log CFU/piece | Reductions of Salmonella, range over the fresh produce items (listed as iHP): 2.35-5.50 log CFU/piece
